From ChEMBL document CHEMBL1132239, “Tricyclic farnesyl protein transferase inhibitors: crystallographic and calorimetric studies of structure-activity relationships” (J Med Chem, 1999)

Key:
[1] = Dissociation constant of the Compound; assay type: physicochemical
[2] = biological target: Protein farnesyltransferase (Homo sapiens, UniProt P49354+P49356); assay: Inhibition of Farnesyl protein transferase; assay type: protein-complex assay

Row | Kd [1] | IC50 [2] | Structure (SMILES)
1 | 17.5 nM | 52 nM | O=C(Cc1cc[n+]([O-])cc1)N1CCC(=C2c3ccc(Cl)cc3CCc3cc(Br)cnc32)CC1
2 | 240 nM |  | O=C(Cc1cc[n+]([O-])cc1)N1CCC(=C2c3ccc(Cl)cc3CCc3cccnc32)CC1
3 | 5.1 nM | 3.9 nM | O=C(Cc1cc[n+]([O-])cc1)N1CCC(=C2c3ncc(Br)cc3CCc3cc(Cl)cc(Br)c32)CC1

Row | Structure (SMILES) | Kd [1] | IC50 [2]
4 | O=C(Cc1cc[n+]([O-])cc1)N1CCN([C@H]2c3ccc(Cl)cc3CCc3cc(Br)cnc32)CC1 | 21 nM | 
5 | O=C(Cc1cc[n+]([O-])cc1)N1CCN([C@@H]2c3ccc(Cl)cc3CCc3cc(Br)cnc32)CC1 | 32 nM | 
